Data published in US20190184069A1, “ANTIMICROBIAL COMPOSITIONS COMPRISING MINOCYCLINE AND DEGRADATION PRODUCTS OF OXIDIZED CELLULOSE” (Omrix Biopharmaceuticals Ltd., priority 2017, published 2019).
Values joined by “and” are separate entries in the source; they are usually repeats but may differ in a detail not shown here. Identical values can stand only once. “Also recorded” adds a separate entry of the source.

Legend:
[1] = tested on: S. aureus; test: Secondary stage: bacterial growth (ET50/MIC) of antibiotics with or without extract of degradation products of ORC; type: cell-based, Staphylococcus aureus
Excerpt: ORC pads which had not been impregnated with antibiotic (referred to herein as “blank ORC pads”), were subjected to extraction and degradation in PBS for three hours at ambient temperature. Extract obtained from these blank ORC pads is referred to herein as “blank extract of degradation products of ORC”.
Blank ORC pads were subjected to extraction and degradation in a solution of antibiotic in PBS. Extracts of degradation products obtained from blank ORC pads in a solution of antibiotic in PBS is referred to herein as “extracts of degradation products of blank ORC in antibiotic”.
Due to the acidity of ORC, which provides some antibiotic effect, the size of the pad used was small i.e. approximately 1×1.5 inch, weighing between 65-75 mg (70 mg on average) in order to prevent the ORC from affecting the final pH of the assay and therefore the growth of the bacteria.
15 ml tubes, each containing 3 ml of an antibiotic solution at a known concentration in sterile PBS, were prepared in duplicate.
Blank ORC pads were subjected to extraction and degradation in the antibiotic solution by immersing the ORC pads in the antibiotic solution for 3-5 hours at ambient temperature on a roller mixer (Stuart, Cat#SRT9D).
Blank extract of degradation products of ORC and extract in antibiotic of degradation products of ORC, prepared as described above, were diluted 10 folds in MHBII in sterile 15 ml capped tubes.
The 5×10^6 CFU/ml stock suspension which had been prepared in advance was transferred into a reservoir and 10 μl of the stock suspension were added into each well of columns 2-11 using a multichannel pipette to obtain a final 5×10^5 CFU/ml suspension.
Columns 3 to 6, rows B to F, were filled with the Blank ORC extracted in antibiotic at decreasing concentrations 1 to 5, diluted 10 folds in MHBII. Each sample tested was placed in 4 well repeats for statistical results.
Columns 7 to 10, rows B to F, were filled with the antibiotic solution (AB) at decreasing concentrations 1 to 5, diluted 10 folds in MHBII. Each sample tested was placed in 4 well repeats for statistical results.
Columns 3 to 6, row G, were filled with the blank extract of degradation products of ORC (PBS-ORC) diluted 10 folds in MHBII.
The plate was incubated at 37° C. with shaking in the ELISA reader and the optical density at 600 nm was read every 20 minutes for a total of 18 hours.
The average and standard deviation for OD readings was calculated for each time point of the wells using Excel. The average values were plotted against time to obtain a graph of the bacterial growth curves in the presence of each of the antibiotics tested.
In some cases, the average OD was plotted for a single endpoint of 800 minutes for the various antibiotic treatments and controls.
The average values were also entered into the GraphPad Prism program (GraphPad Software Inc., CA, USA) in order to calculate the Effective Time 50 (ET50) i.e. the time, in minutes, required for the antibiotic to induce a response halfway between the baseline and maximum, where the maximum is the bacterial growth in MHBII with PBS. This provides a quantifiable measure of the efficacy of the antibiotics tested and enables comparison of the various samples tested.

[2] = tested on: S. aureus; test: Tertiary stage: antimicrobial activity (ET50/MIC) of extract of degradation products of antibiotic-impregnated ORC pads, single or combination; type: cell-based, Staphylococcus aureus; settings: for Fold reduction in MIC concentration: primary MIC (antibiotic alone) versus antibiotic-impregnated ORC (tertiary) MIC; for MIC times higher than that of the primary stage MIC: antibiotic impregnated onto ORC pad
Procedure: Solutions comprising different concentrations of antibiotics to be tested were prepared in methanol.
Blank ORC pads of dimensions 1×1.5 inch, weighing between 65-75 mg (70 mg on average), in duplicate, were immersed in the antibiotic solutions and then dried using a rotary evaporator to provide extract of degradation products of antibiotic-impregnated ORC pads.
15 ml test tubes containing 3 ml of sterile PBS were prepared, and the antibiotic-impregnated ORC pads were immersed in the tubes and incubated for 3-5 hours at ambient temperature on a roller mixer (Stuart, Cat#SRT9D).
Each of the above extracts was filtered out using a sterile 0.8/0.2 μm syringe filter into a clean 15 ml tube. These extraction fluids are referred to herein as “extract of degradation products of antibiotic-impregnated ORC”.
Briefly, ORC pads weighing on average 70 mg each were impregnated with the selected antibiotic. Extracts of degradation products of antibiotic-impregnated ORC were prepared by immersion and incubation in 3 ml of sterile PBS for 3 hours at ambient temperature. The ORC degeneration products were then removed, and any remaining ORC particles were filtered out using a […] syringe filter. This extraction fluid was then diluted 10-fold into Muller Hinton growth medium containing bacteria. Bacterial growth was monitored every 20 min for a total of 18 hours according to optical density (OD) at 600 nm, using an ELISA reader.
Since the study included many possible combinations of two antibiotics, each with their own different concentration range, a matrix of possible antibiotic concentrations was designed, and degradation products of ORC were prepared accordingly (see Table 10). Since all the possible combinations could not be fitted into one 96 well plate, a series of MIC experiments were carried out.

In the case of `CN(C)c1ccc(O)c2c1C[C@H]1C[C@H]3[C@H](N(C)C)C(O)=C(C(N)=O)C(=O)[C@@]3(O)C(O)=C1C2=O` [Minocycline, minocycline], the ET50 ([1]; minocycline 0.05 μg/ml, +ORC degradation products) was 901.1 min, the ET50 ([1]; minocycline 0.05 μg/ml, +ORC degradation products, listed as minocycline) was 901 min and the ET50 ([1]; minocycline 0.05 μg/ml, −ORC) was 428.1 min. The ET50 ([1]; minocycline 0.1 μg/ml, +ORC degradation products) was over 2000 min, the ET50 ([1]; minocycline 0.1 μg/ml, +ORC degradation products, listed as minocycline) was “over 2000 minutes” and the ET50 ([1]; minocycline 0.1 μg/ml, −ORC) was 555.1 min. For the same molecule, the ET50 ([1]; minocycline 0.1 μg/ml, −ORC, listed as minocycline) was 555 min, the ET50 ([1]; minocycline 0.2 μg/ml, +ORC degradation products) was over 2000 min and the ET50 ([1]; minocycline 0.2 μg/ml, +ORC degradation products, listed as minocycline) was “over 2000 minutes”. For the same molecule, the ET50 ([1]; minocycline 0.2 μg/ml, −ORC) was 1771 min, the ET50 ([1]; minocycline 0.4 μg/ml, +ORC degradation products) was over 2000 min and the ET50 ([1]; minocycline 0.4 μg/ml, −ORC) was over 2000 min. For the same molecule, the ET50 ([1]; minocycline 0.4 μg/ml, −ORC, listed as minocycline) was “above 2000 minutes”, the ET50 ([1]; minocycline 0.5 μg/ml, +ORC degradation products) was over 2000 min and the ET50 ([1]; minocycline 0.5 μg/ml, −ORC) was over 2000 min. For the same molecule, the “MIC fold lower in the presence of degradation products of ORC than in their absence” value [2] was “at least 5.8 fold”, the “Fold reduction of the MIC for minocycline with at least one more antibiotic impregnated on ORC, versus minocycline alone” value ([2]; combination with rifampin or clindamycin, with ORC degradation products) was 200 fold and the ET50 ([2]; impregnated ORC extract, minocycline 1.26 ng/ml, clindamycin 0.00 ng/ml) was 637.6 min. The ET50 ([2]; impregnated ORC extract, minocycline 1.26 ng/ml, rifampin 0.00 ng/ml) was 585.4 min, the ET50 ([2]; impregnated ORC extract, minocycline 2.52 ng/ml, clindamycin 0.00 ng/ml) was 1072 min and the ET50 ([2]; impregnated ORC extract, minocycline 2.52 ng/ml, rifampin 0.00 ng/ml) was 799.9 min. For the same molecule, the ET50 ([2]; impregnated ORC extract, minocycline 5.04 ng/ml, clindamycin 0.00 ng/ml) was over 2000 min, the ET50 ([2]; impregnated ORC extract, minocycline 5.04 ng/ml, rifampin 0.00 ng/ml) was over 2000 min and the ET50 ([2]; impregnated ORC extract, minocycline 6.30 ng/ml, clindamycin 0.00 ng/ml) was over 2000 min. For the same molecule, the ET50 ([2]; impregnated ORC extract, minocycline 6.30 ng/ml, rifampin 0.00 ng/ml) was over 2000 min, the ET50 ([2]; minocycline-impregnated ORC extract, impregnation fluid 5 μg/ml, 0.00027 % on ORC, 6.30 ng/ml in MIC) was 1145 min and the ET50 ([2]; minocycline-impregnated ORC extract, impregnation fluid 10 μg/ml, 0.00054 % on ORC, 12.60 ng/ml in MIC) was 2000 min. The ET50 ([2]; minocycline-impregnated ORC extract, impregnation fluid 20 μg/ml, 0.00108 % on ORC, 25.20 ng/ml in MIC) was over 2000 min, the ET50 ([2]; minocycline-impregnated ORC extract, impregnation fluid 40 μg/ml, 0.00216 % on ORC, 50.40 ng/ml in MIC) was over 2000 min and the “Fold reduction in MIC concentration” value [2] was 20 and 19.85.

With `CO[C@H]1/C=C/O[C@@]2(C)Oc3c(C)c(O)c4c(O)c(c(/C=N/N5CCN(C)CC5)c(O)c4c3C2=O)NC(=O)/C(C)=C\C=C\[C@H](C)[C@H](O)[C@@H](C)[C@@H](O)[C@@H](C)[C@H](OC(C)=O)[C@@H]1C` [Rifampin, rifampin] the “Effect of addition of degradation products of ORC on the antibiotic activity” value ([1]; antibiotic with versus without ORC degradation products) was “reduction in the antibiotic activity; also recorded: interfere with the antibiotic activity; also recorded: lowering of the antibiotic activity; also recorded: impaired”, the ET50 ([1]; rifampin 0.015 μg/ml, +ORC degradation products) was 440.5 min and the ET50 ([1]; rifampin 0.015 μg/ml, −ORC) was 470.7 min. The ET50 ([1]; rifampin 0.031 μg/ml, +ORC degradation products) was 436.3 min, the ET50 ([1]; rifampin 0.031 μg/ml, −ORC) was 448.4 min and the ET50 ([1]; rifampin 0.062 μg/ml, +ORC degradation products) was 432.8 min. The ET50 ([1]; rifampin 0.062 μg/ml, +ORC degradation products, listed as rifampin) was 430 min, the ET50 ([1]; rifampin 0.062 μg/ml, −ORC) was 669.1 min and the ET50 ([1]; rifampin 0.125 μg/ml, +ORC degradation products) was 432.3 min. For the same molecule, the ET50 ([1]; rifampin 0.125 μg/ml, +ORC degradation products, listed as rifampin) was “around 430 minutes”, the ET50 ([1]; rifampin 0.125 μg/ml, −ORC) was “no growth at all” and the ET50 ([1]; rifampin 0.25 μg/ml, +ORC degradation products) was 430.8 min. For the same molecule, the ET50 ([1]; rifampin 0.25 μg/ml, +ORC degradation products, listed as rifampin) was “around 430 minutes”, the ET50 ([1]; rifampin 0.25 μg/ml, −ORC) was “no growth at all” and the “Change of antimicrobial activity when impregnated onto the ORC pad versus first stage MIC” value [2] was “impaired”. For the same molecule, the “MIC times higher than that of the primary stage MIC” value [2] was 50 times, the “MIC times higher than that of the primary stage MIC” value ([2]; listed as rifampin) was “about 50 times” and the ET50 ([2]; impregnated ORC extract, minocycline 0.00 ng/ml, rifampin 73.29 ng/ml) was 406.8 min. It also gave an ET50 ([2]; impregnated ORC extract, minocycline 0.00 ng/ml, rifampin 146.58 ng/ml) of 442.3 min, an ET50 ([2]; impregnated ORC extract, minocycline 0.00 ng/ml, rifampin 293.16 ng/ml) of 450.4 min and an ET50 ([2]; impregnated ORC extract, minocycline 0.00 ng/ml, rifampin 366.45 ng/ml) of 418.1 min. For the same molecule, the “Fold reduction in MIC concentration” value [2] was 0.019, the ET50 ([2]; rifampin-impregnated ORC extract, impregnation fluid 50 μg/ml, 0.015705 % on ORC, 366.45 ng/ml in MIC) was 643 min and the ET50 ([2]; rifampin-impregnated ORC extract, impregnation fluid 100 μg/ml, 0.03141 % on ORC, 732.9 ng/ml in MIC) was 1396 min. For the same molecule, the ET50 ([2]; rifampin-impregnated ORC extract, impregnation fluid 150 μg/ml, 0.047115 % on ORC, 1099.35 ng/ml in MIC) was over 2000 min and the ET50 ([2]; rifampin-impregnated ORC extract, impregnation fluid 200 μg/ml, 0.06282 % on ORC, 1465.8 ng/ml in MIC) was over 2000 min.
